In article PMC8113758, “Functional Characterization of Sex Pheromone Neurons and Receptors in the Armyworm, Mythimna separata (Walker)” (Frontiers in Neuroanatomy, 2021):

Columns and labels:
Assay in all cases: two-electrode voltage clamp, Xenopus oocytes, dose-response
Type in all cases: cell-based, Mythimna separata
MsepPR1 = test system: T1, MsepPR1
T1 construct: full-length; with MsepOrco

MsepPR5 = test system: T2, MsepPR5
T2 construct: full-length; with MsepOrco

MsepPR6 = test system: T3, MsepPR6
T3 construct: full-length; with MsepOrco

Row | Compound | EC50 (MsepPR1) [µM] | EC50 (MsepPR5) [µM] | EC50 (MsepPR6) [µM]
1 | CCCC/C=C\CCCCCCCC=O [Z9–14:Ald, (Z)-9-tetradecenal] | 49 | 30.4 | –
2 | CCCC/C=C\CCCCCCCCOC(C)=O [Z9–14:OAc, (Z)-9-tetradecen-1-yl acetate] | – | – | 0.746
